What all share (format): biochemical
One experiment concerns the target human cathepsin S (CatS) (Homo sapiens (Human), UniProt P25774). The experiment is described as follows: CatS functional enzyme assay. The settings on record: for Selectivity Ki(hCatS)/Ki(hCatK): ratio Ki(hCatS)/Ki(hCatK); for Ki: recombinant human CatS, substrate Z-VVR-AMC 5 μM, pH 6.5, Ki by Cheng Prusoff equation, read-out: hCatS, Ki. In short, it runs like this:
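Recombinant human enzymes were incubated 10 min at RT with AMC substrate: CatS 0.0007 mU/well with Z-VVR-AMC 5 µM; CatK 0.00175 mU/well with Z-FR-AMC 40 µM; CatL 0.000874 mU/well with Z-VVR-AMC 40 µM. Fluorescence gave IC50, converted to Ki by Cheng-Prusoff.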

Another experiment concerns the target human cathepsin K (CatK) (Homo sapiens (Human), UniProt P43235). The experiment is described as follows: CatK functional enzyme assay. The settings on record: recombinant human CatK, substrate Z-FR-AMC 40 μM, pH 5.5; Ki by Cheng Prusoff equation; read-out: hCatK, Ki. In short, it runs like this:
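Recombinant human enzymes in 50 mM NaOAc, 10 mM EDTA, 1 mM DTT, 0.01% Triton X-100, pH 5.5, 10 min at RT. CatK: 0.00175 mU/well with 40 μM Z-FR-AMC; CatL: 0.000874 mU/well with 40 μM Z-VVR-AMC. AMC fluorescence read; IC50 converted to Ki via Cheng–Prusoff.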

For the next experiment, the target named is human cathepsin L (CatL) (Homo sapiens (Human), UniProt P07711). The experiment is described as follows: CatL functional enzyme assay. The note with it: read-out: hCatL, inhibition [%] at 31.6 μM.
human cathepsin L (CatL), sequence (P07711 114-333): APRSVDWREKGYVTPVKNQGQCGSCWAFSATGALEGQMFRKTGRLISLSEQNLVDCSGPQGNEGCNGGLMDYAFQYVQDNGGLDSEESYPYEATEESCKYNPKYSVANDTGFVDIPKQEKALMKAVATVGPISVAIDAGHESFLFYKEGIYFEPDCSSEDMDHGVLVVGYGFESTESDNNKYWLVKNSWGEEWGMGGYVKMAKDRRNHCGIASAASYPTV

human cathepsin S (CatS), sequence (P25774 115-331): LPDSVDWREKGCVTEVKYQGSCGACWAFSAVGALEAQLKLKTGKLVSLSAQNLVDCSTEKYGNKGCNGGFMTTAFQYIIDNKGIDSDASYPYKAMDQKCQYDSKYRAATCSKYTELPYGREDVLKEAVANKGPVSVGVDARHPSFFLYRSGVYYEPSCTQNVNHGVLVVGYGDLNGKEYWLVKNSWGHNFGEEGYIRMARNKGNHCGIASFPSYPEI
human cathepsin K (CatK), sequence (P43235 115-329): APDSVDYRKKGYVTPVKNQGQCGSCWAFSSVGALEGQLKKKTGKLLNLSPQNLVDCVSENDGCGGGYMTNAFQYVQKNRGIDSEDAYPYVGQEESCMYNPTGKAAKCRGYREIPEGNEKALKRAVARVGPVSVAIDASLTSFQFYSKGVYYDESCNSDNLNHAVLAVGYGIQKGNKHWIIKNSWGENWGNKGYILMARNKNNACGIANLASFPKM

In the case of `C[S+]([O-])c1cnnc(-c2ccc(C(=O)N[C@H](C(=O)N3C[C@H](Cl)[C@H]4OCC(=O)[C@H]43)C3CCCCC3)s2)c1` (stereo partly drawn) [Example 76, N-((S)-2-((3aS,6S,6aS)-6-chloro-3-oxotetrahydro-2H-furo[3,2-b]pyrrol-4(5H)-yl)-1-cyclohexyl-2-oxoethyl)-5-(5-(methylsulfinyl)pyridazin-3-yl)thiophene-2-carboxamide], on human cathepsin S (CatS), the “Selectivity Ki(hCatS)/Ki(hCatK)” value is recorded as 1.0 and the Ki is 29 nM. Also, the Ki on human cathepsin K (CatK) came to 30 nM. Besides, the inhibition at 31.6 µM at human cathepsin L (CatL) stood at 19%.
Taken in the same sequence, the figures for `Cc1cc(-c2cnc(C(=O)N[C@H](C(=O)N3C[C@H](Cl)[C@H]4OCC(=O)[C@H]43)C3CCCCC3)s2)cn[n+]1[O-]` [Example 77, 4-(2-(((S)-2-((3aS,6S,6aS)-6-chloro-3-oxotetrahydro-2H-furo[3,2-b]pyrrol-4(5H)-yl)-1-cyclohexyl-2-oxoethyl)carbamoyl)thiazol-5-yl)-6-methylpyridazine 1-oxide] were 1.3, 25 nM, 20 nM and 12%.
As to `CS(=O)(=O)c1cnnc(-c2ccc(C(=O)N[C@H](C(=O)N3C[C@H](Cl)[C@H]4OCC(=O)[C@H]43)C3CCCCC3)s2)c1` [Example 78, N-((S)-2-((3aS,6S,6aS)-6-chloro-3-oxotetrahydro-2H-furo[3,2-b]pyrrol-4(5H)-yl)-1-cyclohexyl-2-oxoethyl)-5-(5-(methylsulfonyl)pyridazin-3-yl)thiophene-2-carboxamide], on human cathepsin S (CatS), the “Selectivity Ki(hCatS)/Ki(hCatK)” value was found to be 0.8 and the Ki was 16 nM. Moreover, at human cathepsin K (CatK), the Ki turned out to be 20 nM. Besides, the inhibition at 31.6 µM at human cathepsin L (CatL) was determined as 21%.
For the molecule `O=C(N[C@H](C(=O)N1C[C@H](Cl)[C@H]2OCC(=O)[C@H]21)C1CCCCC1)c1ccc(-c2ccc[n+]([O-])n2)s1` [Example 79, 3-(5-(((S)-2-((3aS,6S,6aS)-6-chloro-3-oxotetrahydro-2H-furo[3,2-b]pyrrol-4(5H)-yl)-1-cyclohexyl-2-oxoethyl)carbamoyl)thiophen-2-yl)pyridazine 1-oxide], on human cathepsin S (CatS), the “Selectivity Ki(hCatS)/Ki(hCatK)” value came out at 2.7. Moreover, the inhibition constant Ki at human cathepsin S (CatS) stood at 56 nM; at human cathepsin K (CatK), 21 nM. Moreover, the inhibition at 31.6 µM at human cathepsin L (CatL) was found to be 25%.
Take `O=C(N[C@H](C(=O)N1C[C@H](Cl)[C@H]2OCC(=O)[C@H]21)C1CCCCC1)c1ccc(-c2cnnc(O)c2)s1` [Example 80, N-((S)-2-((3aS,6S,6aS)-6-chloro-3-oxotetrahydro-2H-furo[3,2-b]pyrrol-4(5H)-yl)-1-cyclohexyl-2-oxoethyl)-5-(6-hydroxypyridazin-4-yl)thiophene-2-carboxamide]: on human cathepsin S (CatS), the “Selectivity Ki(hCatS)/Ki(hCatK)” value turned out to be 2.6 and the Ki turned out to be 42 nM. Besides, the Ki on human cathepsin K (CatK) turned out to be 16 nM. Further, the inhibition at 31.6 µM at human cathepsin L (CatL) turned out to be 30%.
Taken in the same sequence, the figures for `Cc1ncc(-c2ccc(C(=O)N[C@H](C(=O)N3C[C@H](Cl)[C@H]4OCC(=O)[C@H]43)C3CCCCC3)s2)c(C)n1` [Example 81, N-((S)-2-((3aS,6S,6aS)-6-chloro-3-oxotetrahydro-2H-furo[3,2-b]pyrrol-4(5H)-yl)-1-cyclohexyl-2-oxoethyl)-5-(2,4-dimethylpyrimidin-5-yl)thiophene-2-carboxamide] were 12.1, 133 nM, 11 nM and 18%.
With `O=C(N[C@H](C(=O)N1C[C@H](Cl)[C@H]2OCC(=O)[C@H]21)C1CCCCC1)c1ncc(-c2ccnc(C3CC3)c2)s1` [Example 82, N-((S)-2-((3aS,6S,6aS)-6-chloro-3-oxotetrahydro-2H-furo[3,2-b]pyrrol-4(5H)-yl)-1-cyclohexyl-2-oxoethyl)-5-(2-cyclopropylpyridin-4-yl)thiazole-2-carboxamide], at human cathepsin S (CatS), the “Selectivity Ki(hCatS)/Ki(hCatK)” value came to 14.3 and the inhibitory constant (Ki) was determined as 129 nM. Also, the Ki on human cathepsin K (CatK) was determined as 9 nM. Also, the inhibition at 31.6 µM at human cathepsin L (CatL) stood at 24%.
Turning to `Cc1ncccc1-c1ccc(C(=O)N[C@H](C(=O)N2C[C@H](Cl)[C@H]3OCC(=O)[C@H]32)C2CCCCC2)s1` [Example 83, N-((S)-2-((3aS,6S,6aS)-6-chloro-3-oxotetrahydro-2H-furo[3,2-b]pyrrol-4(5H)-yl)-1-cyclohexyl-2-oxoethyl)-5-(2-methylpyridin-3-yl)thiophene-2-carboxamide], the “Selectivity Ki(hCatS)/Ki(hCatK)” value at human cathepsin S (CatS) is recorded as 44.0. In addition, the Ki is 296 nM on human cathepsin S (CatS) and 7 nM on human cathepsin K (CatK). Further, at human cathepsin L (CatL), the inhibition at 31.6 µM was 1%.
As for `Cc1ccnnc1-c1ccc(C(=O)N[C@H](C(=O)N2C[C@H](Cl)[C@H]3OCC(=O)[C@H]32)C2CCCCC2)s1` [Example 84, N-((S)-2-((3aS,6S,6aS)-6-chloro-3-oxotetrahydro-2H-furo[3,2-b]pyrrol-4(5H)-yl)-1-cyclohexyl-2-oxoethyl)-5-(4-methylpyridazin-3-yl)thiophene-2-carboxamide], on human cathepsin S (CatS), the “Selectivity Ki(hCatS)/Ki(hCatK)” value was determined as 21.8 and the Ki turned out to be 358 nM. The inhibition constant (Ki) at human cathepsin K (CatK) amounted to 16 nM. Further, the inhibition at 31.6 µM at human cathepsin L (CatL) was 6%.
Taken in the same sequence, the figures for `CCc1cc(-c2ccc(C(=O)N[C@H](C(=O)N3C[C@H](Cl)[C@H]4OCC(=O)[C@H]43)C3CCCCC3)s2)cnn1` [Example 85, N-((S)-2-((3aS,6S,6aS)-6-chloro-3-oxotetrahydro-2H-furo[3,2-b]pyrrol-4(5H)-yl)-1-cyclohexyl-2-oxoethyl)-5-(6-ethylpyridazin-4-yl)thiophene-2-carboxamide] were 1.1, 6 nM, 5 nM and 14%.
Taken in the same sequence, the figures for `CCc1cc(-c2ccc(C(=O)N[C@H](C(=O)N3C[C@H](Cl)[C@H]4OCC(=O)[C@H]43)C3CCCCC3)s2)ccn1` [Example 86, N-((S)-2-((3aS,6S,6aS)-6-chloro-3-oxotetrahydro-2H-furo[3,2-b]pyrrol-4(5H)-yl)-1-cyclohexyl-2-oxoethyl)-5-(2-ethylpyridin-4-yl)thiophene-2-carboxamide] were 16.7, 24 nM, 1 nM and 25%.
Taken in the same sequence, the figures for `CCc1cc(-c2cnc(C(=O)N[C@H](C(=O)N3C[C@H](Cl)[C@H]4OCC(=O)[C@H]43)C3CCCCC3)s2)ccn1` [Example 87, N-((S)-2-((3aS,6S,6aS)-6-chloro-3-oxotetrahydro-2H-furo[3,2-b]pyrrol-4(5H)-yl)-1-cyclohexyl-2-oxoethyl)-5-(2-ethylpyridin-4-yl)thiazole-2-carboxamide] were 16.2, 59 nM, 4 nM and 14%.
In the case of `Cc1cc(-c2ccc(C(=O)N[C@H](C(=O)N3C[C@H](Cl)[C@H]4OCC(=O)[C@H]43)C3CCCCC3)s2)c(C)cn1` [Example 88, N-((S)-2-((3aS,6S,6aS)-6-chloro-3-oxotetrahydro-2H-furo[3,2-b]pyrrol-4(5H)-yl)-1-cyclohexyl-2-oxoethyl)-5-(2,5-dimethylpyridin-4-yl)thiophene-2-carboxamide], on human cathepsin S (CatS), the “Selectivity Ki(hCatS)/Ki(hCatK)” value is 18.6 and the Ki came to 335 nM. Moreover, the Ki at human cathepsin K (CatK) is 18 nM. The inhibition at 31.6 µM at human cathepsin L (CatL) is 0%.
`Cc1cc(-c2ccc(C(=O)N[C@H](C(=O)N3C[C@H](Cl)[C@H]4OCC(=O)[C@H]43)C3CCCCC3)s2)c(C)nn1` [Example 89, N-((S)-2-((3aS,6S,6aS)-6-chloro-3-oxotetrahydro-2H-furo[3,2-b]pyrrol-4(5H)-yl)-1-cyclohexyl-2-oxoethyl)-5-(3,6-dimethylpyridazin-4-yl)thiophene-2-carboxamide]: on human cathepsin S (CatS), the “Selectivity Ki(hCatS)/Ki(hCatK)” value is given as 0.7 and the Ki came out at 13 nM. The Ki on human cathepsin K (CatK) is 18 nM. The inhibition at 31.6 µM on human cathepsin L (CatL) was determined as 12%.
On to `Cc1cnncc1-c1ccc(C(=O)N[C@H](C(=O)N2C[C@H](Cl)[C@H]3OCC(=O)[C@H]32)C2CCCCC2)s1` [Example 90, N-((S)-2-((3aS,6S,6aS)-6-chloro-3-oxotetrahydro-2H-furo[3,2-b]pyrrol-4(5H)-yl)-1-cyclohexyl-2-oxoethyl)-5-(5-methylpyridazin-4-yl)thiophene-2-carboxamide], for which the “Selectivity Ki(hCatS)/Ki(hCatK)” value on human cathepsin S (CatS) is 7.3. Also, the values for the Ki on human cathepsin S (CatS) and at human cathepsin K (CatK) were 73 nM and 10 nM, respectively. Moreover, at human cathepsin L (CatL), the inhibition at 31.6 µM was determined as 20%.

By Ki is commonly meant a measure of affinity in units of concentration, obtained from inhibition or displacement. One may read the inhibition as the share of the control response that was lost under treatment.
